Laboratory results from article PMC7827417, “Steroid Glycosides Hyrcanoside and Deglucohyrcanoside: On Isolation, Structural Identification, and Anticancer Activity” (Foods, 2021).

Columns and labels:
CCRF-CEM = assay: MTS cytotoxic assay, CCRF-CEM; type: cell-based; conditions: Homo sapiens, 72 h
From the text: (§1) If not indicated otherwise, the cell lines were purchased from the American Type Culture Collection (ATCC). […] K562 is the erythroid-myeloid precursor cell line derived from chronic myeloid leukemia carrying the BCR-ABL hybrid gene. A549, MCF-7, PC-3, 5637, U-2 OS, and MiaPaCa-2 are cells derived from lung, breast, prostate, bladder carcinoma, osteosarcoma, and pancreatic adenocarcinoma, respectively. HEK 293T are transformed human embryonic kidney cells, and L929 (Sigma, St. Louis, MS, USA) are transformed mouse fibroblasts. HCT116, cells from colorectal carcinoma, and their p53 gene knock-out variant (HCT116p53-/-) were purchased from Horizon Discovery. This cell line is a model of human tumors bearing p53 loss-of-function mutations or biallelic deletion of the p53 gene, frequently associated with poor prognosis. The MRC-5 and BJ cells were used as noncancerous cells; more specifically, they are human fibroblasts from the lungs and foreskin, respectively. According to the supplier’s recommendations, all cells were cultured at 37 °C in a 5% CO2 atmosphere and 100% humidity. The culture media used were: DMEM, RPMI 1640, and MEM (according to a cell line); all were supplemented with 5 g L^−1 glucose, 10% fetal calf serum, 2 mM glutamine, 100 U mL^−1 penicillin, 100 µg mL^−1 streptomycin, and NaHCO3. Cells were passaged every two or three days using 0.25% trypsin plus 0.01% EDTA (ethylenediamine tetraacetic acid) in phosphate-buffered saline.
(§2) To evaluate compound cytotoxicity, cells were seeded in 384-well microtiter plates in a volume of […]. The next day, aliquots of the tested derivatives were transferred with Echo550 acoustic liquid handler (Labcyte) to obtain dose response curves with dilution factor 4. The experiments were performed in technical duplicates and three or more biological replicates. After 72 h of incubation in a humidified incubator, […] of the MTS/PMS stock solution were pipetted into each well. After another 1–4 h of incubation, the absorbance at 490 nm was measured using an EnVision Multilabel Plate Reader (PerkinElmer).

A549 = assay: MTS cytotoxic assay, A549; type: cell-based; conditions: Homo sapiens, A549, 72 h
From the text: as §1, §2

HCT116 = assay: MTS cytotoxic assay, HCT116; type: cell-based; conditions: Homo sapiens, HCT-116, 72 h
From the text: as §1, §2

MiaPaCa-2 = assay: MTS cytotoxic assay, MiaPaCa-2; type: cell-based; conditions: Homo sapiens, MIA PaCa-2, 72 h
From the text: as §1, §2

MCF-7 = assay: MTS cytotoxic assay, MCF-7; type: cell-based; conditions: Homo sapiens, MCF7, 72 h
From the text: as §1, §2

U-2 OS = assay: MTS cytotoxic assay, U-2 OS; type: cell-based; conditions: Homo sapiens, U2OS, 72 h
From the text: as §1, §2

5637 = assay: MTS cytotoxic assay, 5637; type: cell-based; conditions: Homo sapiens, 72 h
From the text: as §1, §2

PC-3 = assay: MTS cytotoxic assay, PC-3; type: cell-based; conditions: Homo sapiens, PC-3, 72 h
From the text: as §1, §2

HEK 293T = assay: MTS cytotoxic assay, HEK 293T; type: cell-based; conditions: Homo sapiens, HEK-293T, 72 h
From the text: as §1, §2

MRC-5 = assay: MTS cytotoxic assay, MRC-5; type: cell-based; conditions: Homo sapiens, MRC5, 72 h
From the text: as §1, §2

L929 = assay: MTS cytotoxic assay, L929; type: cell-based, mouse; conditions: Mus musculus, L929, 72 h
From the text: as §1, §2

CCRF-CEM cells [1] = assay: Cell cycle arrest and cell death analysis by flow cytometry (propidium iodide, pH3Ser10); type: cell-based, human; conditions: % of positive cells
Experimental: Together with the CG-treated cells, a vehicle-treated sample was harvested at the same time point. After 24 h, the cells were washed with cold phosphate-buffered saline, fixed dropwise in 70% ethanol, and stored overnight at −20 °C. The cells were then washed with hypotonic citrate buffer, treated with RNAse (50 µg mL^−1), and stained with propidium iodide. Flow cytometry using a 488 nm laser (FACS-Calibur, Becton Dickinson, NJ, USA) was used for measurement. The cell cycle was analyzed by the ModFitLT program (Verity), and apoptosis was measured in a logarithmic model expressing the percentage of particles with a lower propidium content than cells in the G0/G1 phase (<G1) of the cell cycle in the CellQuest program (Becton Dickinson). Half of the sample was used to label cells with pH3^Ser10-FITC antibody (Exbio) for subsequent flow cytometry analysis of mitotic cells.

CCRF-CEM cells [2] = assay: BrDU incorporation analysis (DNA synthesis); type: cell-based, human; conditions: % of positive cells
Experimental: The cells were cultured in the same way as the cell cycle analysis method. Just before harvesting, 5-bromo-2′-deoxyuridine (BrDU) of 10 µM concentration was added to the cells for pulse-labeling for 30 min. Then, the cells were fixed with −20 °C cold 70% ethanol and stored in a freezer for 16 h. Before antibody staining, the samples were incubated on ice for 30 min, washed once with phosphate-buffered saline (PBS), and re-suspended in 2 M of HCl for 30 min at room temperature to hydrolyze their DNA. After neutralization with 0.1 M of Na2B4O7 (borax) solution, the cells were washed with PBS containing 0.5% Tween-20 and 1% BSA. This was followed by staining with the primary anti-BrDU antibody (Exbio) for 30 min at room temperature. Then, the cells were washed with PBS and stained with a secondary anti-mouse antibody conjugated to fluorescein isothiocyanate (Merck-Sigma, St. Louis, MS, USA) at room temperature in the dark. After another washing with PBS and incubation with propidium iodide (0.1 mg·mL^−1) and RNAse A (0.5 mg·mL^−1) for 1 h at room temperature in the dark, the cells were analyzed by flow cytometry using a 488 nm laser (FACSCalibur, Becton Dickinson, Franklin Lakes, NJ, USA).

CCRF-CEM cells [3] = assay: BrU incorporation analysis (RNA synthesis); type: cell-based, human; conditions: % of positive cells
Experimental: The cells were cultured and processed as described above. Before harvesting, the cells were pulse-labeled with 1 mM of 5-bromouridine (BrU) for 30 min. The cells were then fixed in 1% buffered paraformaldehyde with 0.05% NP-40 at room temperature for 15 min, and then stored at 4 °C overnight. Before measurement, they were washed with 1% glycine in PBS, washed again with PBS, and stained with primary anti-BrdU antibody cross-reactive to BrU (Exbio) for 30 min at room temperature in the dark. From this point on, the experiment was performed exactly as in the method described above.

C[C@H]1O[C@@H](O[C@H]2[C@@H](O)C[C@H](O[C@H]3[C@@H](O)C[C@H](O[C@H]4CC[C@@]5(C)[C@H](CC[C@@H]6[C@@H]5CC[C@]5(C)[C@@H](C7=CC(=O)OC7)CC[C@]65O)C4)O[C@@H]3C)O[C@@H]2C)C[C@H](O)[C@@H]1O [Dg, digitoxin]
IC50 (CCRF-CEM): 20 ± 3.5 nM
IC50 (A549): 19 ± 2 nM
IC50 (HCT116): 20 ± 1.5 nM
IC50 (MiaPaCa-2): 79 ± 2.8 nM
IC50 (MCF-7): 78 ± 1.1 nM
IC50 (U-2 OS): 45 ± 2.1 nM
IC50 5637: 58 ± 1.6 nM
IC50 (PC-3): 69 ± 2.2 nM
IC50 (HEK 293T): 69 ± 2.1 nM
IC50 (MRC-5): 78 ± 1.9 nM
IC50 (L929): > 10000 nM
< G1 (apoptotic cells) (CCRF-CEM cells [1]; 1 × IC50, 24 h): 7.56%
G0/G1 (CCRF-CEM cells [1]; 1 × IC50, 24 h): 33.21%
G2/M (CCRF-CEM cells [1]; 1 × IC50, 24 h): 30.51%
M (Phospho-Histone3 (Ser10)) (CCRF-CEM cells [1]; 1 × IC50, 24 h): 1.97%
S (CCRF-CEM cells [1]; 1 × IC50, 24 h): 36.28%
< G1 (apoptotic cells) (CCRF-CEM cells [1]; 5 × IC50, 24 h): 10.35%
G0/G1 (CCRF-CEM cells [1]; 5 × IC50, 24 h): 33.71%
G2/M (CCRF-CEM cells [1]; 5 × IC50, 24 h): 44.03%
M (Phospho-Histone3 (Ser10)) (CCRF-CEM cells [1]; 5 × IC50, 24 h): 1.28%
S (CCRF-CEM cells [1]; 5 × IC50, 24 h): 22.26%
BrDU (CCRF-CEM cells [2]; 1 × IC50, 24 h): 35.91%
BrDU (CCRF-CEM cells [2]; 5 × IC50, 24 h): 23.52%
BrU (CCRF-CEM cells [3]; 1 × IC50, 24 h): 42.99%
BrU (CCRF-CEM cells [3]; 5 × IC50, 24 h): 3.88%
